Each compound was assayed against human GPR17 short isoform (Homo sapiens, UniProt Q13304) (assay: GPR17 cAMP assay (hGPR17 cAMP, TR-FRET, antagonist mode)). Conditions: CHO-K1 cells stably expressing human GPR17 short isoform; EC80 of agonist MDL29,951; forskolin 15 μM; 30 min at room temperature.
Format: cell-based

Chain of human GPR17 short isoform (Q13304 29-367): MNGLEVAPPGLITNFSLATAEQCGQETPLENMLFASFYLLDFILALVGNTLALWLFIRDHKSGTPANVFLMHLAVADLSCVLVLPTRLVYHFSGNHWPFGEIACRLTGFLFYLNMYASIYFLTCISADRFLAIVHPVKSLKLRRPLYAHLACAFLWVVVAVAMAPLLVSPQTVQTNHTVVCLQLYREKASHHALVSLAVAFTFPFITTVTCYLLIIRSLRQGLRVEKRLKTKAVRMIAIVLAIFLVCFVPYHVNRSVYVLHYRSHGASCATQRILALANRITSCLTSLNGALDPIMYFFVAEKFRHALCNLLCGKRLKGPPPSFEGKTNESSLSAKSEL

Row | SMILES | IC50
1 | COc1nc(NS(=O)(=O)c2cnc3cc(C4COC4)ccn23)c(F)cc1CC(F)F [Example 102, N-[5-(2,2-difluoroethyl)-3-fluoro-6-methoxy-2-pyridyl]-7-(oxetan-3-yl)imidazo[1,2-a]pyridine-3-sulfonamide] | 0.201 µM
2 | COc1nc(OCC(F)F)c(F)cc1NS(=O)(=O)c1cnc2nc(Br)ccn12 [Example 105, 7-bromo-N-[6-(2,2-difluoroethoxy)-5-fluoro-2-methoxy-3-pyridyl]imidazo[1,2-a]pyrimidine-3-sulfonamide] | 0.027 µM
3 | COc1nc(OCC(F)F)c(F)cc1NS(=O)(=O)c1cnc2n1CC[C@H](C)C2 [Example 109, (7S)—N-[6-(2,2-difluoroethoxy)-5-fluoro-2-methoxy-3-pyridyl]-7-methyl-5,6,7,8-tetrahydroimidazo[1,2-a]pyridine-3-sulfonamide] | 0.035 µM

Continued by falling IC50, values first:

Row | IC50 | SMILES
4 | 0.492 µM | COc1nc(OCC(F)F)c(F)cc1NS(=O)(=O)c1cnc2nc(C3COC3)ccn12 [Example 103, N-[6-(2,2-difluoroethoxy)-5-fluoro-2-methoxy-3-pyridyl]-7-(oxetan-3-yl)imidazo[1,2-a]pyrimidine-3-sulfonamide]
5 | 0.306 µM | COc1nc(OCC(F)F)c(F)cc1NS(=O)(=O)c1cnn2cc(C3COC3)ccc12 [Example 104, N-[6-(2,2-difluoroethoxy)-5-fluoro-2-methoxy-3-pyridyl]-6-(oxetan-3-yl)pyrazolo[1,5-a]pyridine-3-sulfonamide]
6 | 0.038 µM | COc1nc(OCC(F)F)c(F)cc1NS(=O)(=O)c1cnc2cc(C(C)(C)O)ccn12 [Example 106, N-[6-(2,2-difluoroethoxy)-5-fluoro-2-methoxy-3-pyridyl]-7-(1-hydroxy-1-methyl-ethyl)imidazo[1,2-a]pyridine-3-sulfonamide]
7 | 0.016 µM | COc1nc(OCC(F)F)c(F)cc1NS(=O)(=O)c1cnc2n1CC[C@@H](C)C2 [Example 108, (7R)—N-[6-(2,2-difluoroethoxy)-5-fluoro-2-methoxy-3-pyridyl]-7-methyl-5,6,7,8-tetrahydroimidazo[1,2-a]pyridine-3-sulfonamide]

Reference: patent US20260242372A1, “NOVEL IMIDAZOPYRIDINE AND PYRAZOLOPYRIDINE SULFONAMIDE DERIVATIVES” (Hoffmann-La Roche Inc., priority 2022, published 2026)
